Reference: US11779567B2, “Method for optimizing 5-hydroxytryptamine function in the brain for therapeutic purposes” (Evecxia Therapeutics, Inc., priority 2021, dated 2023)

Assay: Plasma escitalopram levels in Phase 1 study
Assay type: in vivo, human
Settings: for Escitalopram plasma levels, Average Day 21-23 / concentration at 21 day / concentration at 22 day / concentration at 23 day: 20 mg/day oral; for Escitalopram plasma levels, Average Day 21-23 / concentration at 7 day / concentration at 21 day / concentration at 22 day / concentration at 23 day: mean ± SEM; for concentration at 7 day / concentration at 21 day / concentration at 22 day / concentration at 23 day: both sexes, human, plasma; for concentration at 7 day: 10 mg/day, after 10 mg/day oral
Procedure: Study Design. A Phase 1, randomized, double-blind, placebo-controlled, single ascending dose study was performed to evaluate the safety, tolerability and pharmacokinetics (PK) of 5-HTP solution for IV infusion when administered to healthy adults taking a selective serotonin reuptake inhibitor (SSRI), escitalopram, for 3 weeks. Study duration was 37±3 days. The total individual subject participation time was no more than 66 days including screening, dosing, and follow-up phases. The IV infusion duration was 24 h, dosing with 5-HTP solution for IV infusion (see Example 3, above) or placebo (0.9% saline).
Pre-treatment with escitalopram. All subjects received pretreatment with escitalopram for 3 weeks prior to and during the 24 h IV infusion. A supply of escitalopram was provided for self-administration at a dose of 10 mg/day for 7 days. On Day 7 subjects were evaluated for general health and tolerability of escitalopram. Escitalopram compliance confirmation was evaluated by taking a blood draw for escitalopram plasma level measurements and by monitoring pill count using a diary. On Day 7 the subjects received a supply of 20 mg escitalopram tablets and self-administered 20 mg/day until Day 20 when they were admitted to the impatient clinic. Escitalopram was co-administered orally on Day 21-23 by clinical staff. Escitalopram treatment was tapered from 20 mg/day to 10 mg/day after the end of the infusion and continued for 8 days.
Bioanalysis. Plasma samples for 5-HTP analysis were collected and stored at −80° C. Plasma samples for escitalopram analysis were collected and stored at −80° C. Plasma 5-HTP levels and plasma escitalopram levels were measured using standard liquid chromatography with tandem mass spectrometry (LC-MS-MS) methods. For 5-HTP analysis, plasma samples were collected at T=0, 1, 2, 3, 4, 5, 6, 8, 10, 12, 14, 22, 24, 26, 28, 30, 32, 36, and 48 hr. For escitalopram analysis, plasma samples were collected on Day 7, Day 21 (pre-infusion), Day 22 (end of infusion), and Day 23 (24 hr after end of infusion). Plasma escitalopram levels were averaged across days 21-23, during the time-period when subjects were admitted to the clinic and received 5-HTP solution for IV infusion or placebo.
PK analysis of plasma escitalopram. Plasma escitalopram levels across Days 21-23 were averaged for each subject, and statistical analysis by one-way ANOVA for cohort differences executed using GraphPad Prism version 9.4.1.

[1] = oral, Cohort 1 (5-HTP 1 mg/kg, Constant)
[2] = oral, Cohort 2 (5-HTP 3 mg/kg, Constant)
[3] = oral, Cohort 3 (5-HTP 3 mg/kg, Ramped)
[4] = oral, 20 mg/day, Cohort 4 (5-HTP 2 mg/kg, Ramped)
[5] = oral, 20 mg/day, Cohort 5 (5-HTP 1 mg/kg, Ramped)
[6] = po, 20 mg/day, Cohorts 1-5 pooled, placebo infusion instead of 5-HTP, N=10

Escitalopram plasma levels, Average Day 21-23 (Cohort 1 (5-HTP 1 mg/kg, Constant)): 39.7 ± 8.9 ng/mL
Escitalopram plasma levels, Average Day 21-23 (Cohort 2 (5-HTP 3 mg/kg, Constant)): 25.6 ± 6.5 ng/mL
Escitalopram plasma levels, Average Day 21-23 (Cohort 3 (5-HTP 3 mg/kg, Ramped)): 39.1 ± 4.8 ng/mL
Escitalopram plasma levels, Average Day 21-23 (Cohort 4 (5-HTP 2 mg/kg, Ramped)): 29.2 ± 6.2 ng/mL
Escitalopram plasma levels, Average Day 21-23 (Cohort 5 (5-HTP 1 mg/kg, Ramped)): 24.4 ± 5.0 ng/mL
Escitalopram plasma levels, Average Day 21-23 (Cohorts 1-5 pooled, placebo infusion instead of 5-HTP, N=10): 44.0 ± 8.2 ng/mL
average plasma escitalopram levels, range across treatment groups (Days 21-23, 20 mg/day oral): 24 to 44 ng/mL
concentration at 7 day [1]: 19.3 ± 3.1 ng/mL
concentration at 7 day [2]: 10.1 ± 1.5 ng/mL
concentration at 7 day [3]: 17 ± 2.3 ng/mL
concentration at 7 day (oral, Cohort 4 (5-HTP 2 mg/kg, Ramped)): 14.2 ± 2.5 ng/mL
concentration at 7 day (oral, Cohort 5 (5-HTP 1 mg/kg, Ramped)): 11.4 ± 2.3 ng/mL
concentration at 21 day (oral, 20 mg/day, Cohort 1 (5-HTP 1 mg/kg, Constant)): 39.8 ± 12.3 ng/mL
concentration at 21 day (oral, 20 mg/day, Cohort 2 (5-HTP 3 mg/kg, Constant)): 22.5 ± 10.2 ng/mL
concentration at 21 day (oral, 20 mg/day, Cohort 3 (5-HTP 3 mg/kg, Ramped)): 43.5 ± 4.5 ng/mL
concentration at 21 day [4]: 28.5 ± 5.8 ng/mL
concentration at 22 day [4]: 28.8 ± 6.2 ng/mL
concentration at 23 day [4]: 30.3 ± 7 ng/mL
concentration at 21 day [5]: 21.7 ± 3.4 ng/mL
concentration at 22 day [5]: 22.2 ± 4.7 ng/mL
concentration at 23 day [5]: 29.2 ± 7.5 ng/mL
concentration at 22 day [1]: 37.9 ± 7.3 ng/mL
concentration at 23 day [1]: 41.6 ± 7.6 ng/mL
concentration at 22 day [2]: 24.3 ± 5.7 ng/mL
concentration at 23 day [2]: 30 ± 3.7 ng/mL
concentration at 22 day [3]: 37.3 ± 5.9 ng/mL
concentration at 23 day [3]: 36.6 ± 4.1 ng/mL
concentration at 7 day (po, Cohorts 1-5 pooled, placebo infusion instead of 5-HTP, N=10): 18.3 ± 3.1 ng/mL
concentration at 21 day [6]: 43.3 ± 8.4 ng/mL
concentration at 22 day [6]: 45.2 ± 9.1 ng/mL
concentration at 23 day [6]: 43.5 ± 7.5 ng/mL
SMILES: CN(C)CCC[C@@]1(c2ccc(F)cc2)OCc2cc(C#N)ccc21 [Escitalopram, escitalopram]
